Source: article PMC6661766, “Antimicrobial, antioxidant and cytotoxic evaluation of diazenyl chalcones along with insights to mechanism of interaction by molecular docking studies” (BMC Chemistry, 2019)
≈ marks a conversion by molar mass, not a printed value. Where two headings read alike, the source gives them in different places.

Legend:
S. typhi = assay: Antimicrobial serial tube dilution, MIC and MBC; type: cell-based, Salmonella typhi MTCC 3216; conditions: for MIC / MBC: Salmonella enterica, TYPHI; for MIC: 24 h, read-out: S. typhi MIC; for MBC: read-out: S. typhi MBC; for S. typhi MIC: 24 h at 37 ± 2 °C
Description: (§1) The synthesized diazenyl chalcones (C18 to C27) and controls (dyes A and E, and chalcone) were assessed for their antimicrobial activity by estimation of MIC and MBC/MFC values. […] The stock solutions of the test compounds and standard drugs having a concentration of 1000 µg ml^−1 were prepared by dissolving the used compounds in DMSO. The nutrient broth/Sabouraud dextrose broth was used for the serial dilution of the test compounds and referenced drugs for bacterial and fungal cultures, respectively. […] The size of the final inoculum in each test tube was taken as 5 × 10^5 CFU ml^−1. The incubation of the test and standard compounds of varying concentrations was done for 24 h at 37 ± 2 °C (bacterial culture) and for 48 h at 37 ± 2 °C (C. albicans) and for 7 d at 25 ± 2 °C (A. fumigatus). The diazenyl chalcones (C18–C27), were further evaluated for their bactericidal/fungicidal activity by estimation of MBC/MFC values. […] For proper mixing of culture media, the plates were shaken gently followed by incubation at the predefined temperature and time as stated earlier, followed by the visual inspection of the plates for signs of microbial growth.

B. subtilis = assay: Antimicrobial serial tube dilution, MIC and MBC; type: cell-based, Bacillus subtilis MTCC 2063
Description: as §1

E. coli = assay: Antimicrobial serial tube dilution, MIC and MBC; type: cell-based, Escherichia coli MTCC 1652
Description: as §1

B. cereus = assay: Antimicrobial serial tube dilution, MIC and MBC; type: cell-based, Bacillus cereus MTCC 1305
Description: as §1

S. aureus = assay: Antimicrobial serial tube dilution, MIC and MBC; type: cell-based, Staphylococcus aureus MTCC 2901
Description: as §1

A. fumigatus = assay: Antimicrobial serial tube dilution, MIC and MFC; type: cell-based, Aspergillus fumigatus MTCC 2584; conditions: for A. fumigatus MIC: 7 d at 25 ± 2 °C
Description: as §1

C. albicans = assay: Antimicrobial serial tube dilution, MIC and MFC; type: cell-based, Candida albicans MTCC 227; conditions: for C. albicans MIC: 48 h at 37 ± 2 °C
Description: as §1

[1] = DPPH scavenging antioxidant assay
Description: The derivatives (C18–C27) were assessed for their antioxidant potential in the presence of the stable free radical DPPH using ascorbic acid as the standard compound [36, 37]. […] The total volume of 200 µl was used in each well for each concentration of the test and standard drug containing 0.004 µg DPPH. The assay was performed in triplicate at all concentrations of each sample and standard compound. DPPH solutions in methanol at the same concentration without test drugs were used as the control. Each concentration of the sample and standard has a different blank. To minimize evaporation, the plate was covered with the lid and wrapped in aluminium foil and kept in the dark place in order to protect the DPPH radical from degradation by light and left for 30 min. After 30 min of incubation, the plate was kept in ELISA reader to measure the absorbance values at 517 nm. The experiment was performed in triplicate. The antioxidant activity of each sample was then calculated as per cent inhibition of DPPH according to the following equation: %decolourationofDPPH=ControlAbs-SampleAbs×100/ControlAbs

[2] = Bacillus subtilis, 24 h, read-out: B. subtilis MIC
[3] = Escherichia coli, read-out: E. coli MBC
[4] = Escherichia coli; 24 h at 37 ± 2 °C; read-out: E. coli MIC
[5] = Bacillus cereus, 24 h, read-out: B. cereus MIC
[6] = Bacillus cereus; read-out: B. cereus MBC
[7] = Staphylococcus aureus; 24 h at 37 ± 2 °C; read-out: S. aureus MIC
[8] = Staphylococcus aureus; read-out: S. aureus MBC
[9] = Bacillus subtilis, read-out: B. subtilis MBC
[10] = Bacillus subtilis; 24 h at 37 ± 2 °C; read-out: B. subtilis MIC
[11] = Escherichia coli, 24 h, read-out: E. coli MIC, 24 h at 37 ± 2 °C

SMILES | MIC (S. typhi) | MBC (S. typhi) | MBC (E. coli; [3]) | MIC (B. cereus; [5]) | MBC (B. cereus; [6]) | MIC (S. aureus; [7]) | MBC (S. aureus; [8]) | MBC (B. subtilis; [9]) | E. coli MIC (E. coli; 24 h at 37 ± 2 °C) | % inhibition of DPPH ([1]; 1.56 µg ml^−1) | % inhibition of DPPH ([1]; 3.12 µg ml^−1) | % inhibition of DPPH ([1]; 6.25 µg ml^−1) | % inhibition of DPPH ([1]; 12.5 µg ml^−1) | % inhibition of DPPH ([1]; 25 µg ml^−1) | % inhibition of DPPH ([1]; 50 µg ml^−1) | % inhibition of DPPH ([1]; 100 µg ml^−1) | further results
O=C(O)c1cn(C2CC2)c2cc(N3CCNCC3)c(F)cc2c1=O [CIP, ciprofloxacin, reference compound] | 7.81 µg/mL (≈ 23.6 µM) | 7.81 µg/mL (≈ 23.6 µM) | 7.81 µg/mL (≈ 23.6 µM) | 7.81 µg/mL (≈ 23.6 µM) | 15.6 µg/mL (≈ 47.1 µM) | 1.95 µg/mL (≈ 5.89 µM) | 3.9 µg/mL (≈ 11.8 µM) |  |  |  |  |  |  |  |  |  | MIC (B. subtilis; [2]): 7.81 µg/mL (≈ 23.6 µM); MBC (B. subtilis; Bacillus subtilis; read-out: B. subtilis MBC): 15.6 µg/mL (≈ 47.1 µM); MIC (E. coli; [4]): 3.9 µg/mL (≈ 11.8 µM)
CO/N=C(\C(=O)N[C@@H]1C(=O)N2C(C(=O)O)=C(COC(C)=O)CS[C@H]12)c1csc(N)n1 [Cefotaxime, cefotaxime, reference compound] | 3.9 µg/mL (≈ 8.56 µM) | 7.81 µg/mL (≈ 17.1 µM) | 7.81 µg/mL (≈ 17.1 µM) | 7.81 µg/mL (≈ 17.1 µM) | 15.6 µg/mL (≈ 34.3 µM) | 15.6 µg/mL (≈ 34.3 µM) | 31.2 µg/mL (≈ 68.6 µM) | 7.81 µg/mL (≈ 17.1 µM) |  |  |  |  |  |  |  |  | MIC (B. subtilis; [10]): 1.95 µg/mL (≈ 4.28 µM); MIC (E. coli; [11]): 7.81 µg/mL (≈ 17.1 µM)
CC1=C(C(=O)O)N2C(=O)[C@@H](NC(=O)[C@H](N)c3ccc(O)cc3)[C@H]2SC1 [Cefadroxil, cefadroxil, reference compound] | 125 µg/mL (≈ 344 µM) | 125 µg/mL (≈ 344 µM) |  |  | 31.2 µg/mL (≈ 86 µM) | 15.6 µg/mL (≈ 43 µM) | 31.2 µg/mL (≈ 86 µM) | 125 µg/mL (≈ 344 µM) |  |  |  |  |  |  |  |  | MIC (B. subtilis; [10]): 62.5 µg/mL (≈ 172 µM); MIC (E. coli; [4]): 31.2 µg/mL (≈ 86 µM); MBC (E. coli; Escherichia coli; read-out: E. coli MBC): 31.2 µg/mL (≈ 86 µM); MIC (B. cereus; Bacillus cereus; 24 h at 37 ± 2 °C; read-out: B. cereus MIC): 31.2 µg/mL (≈ 86 µM)
O=C(/C=C\c1cc(Br)ccc1O)c1ccc(N=Nc2c(O)cccc2O)cc1 [Compound C-21, (2Z)-3-(5-Bromo-2-hydroxyphenyl)-1-(4-((2,6-dihydroxyphenyl)diazenyl)phenyl)prop-2-en-1-one] | 31.2 µg/mL (≈ 71.1 µM) | 125 µg/mL (≈ 285 µM) | 31.2 µg/mL (≈ 71.1 µM) | 62.5 µg/mL (≈ 142 µM) |  |  |  | 62.5 µg/mL (≈ 142 µM) | 15.62 µg/mL | 8.71% | 12.99% | 20.98% | 25.71% | 30.75% | 35.78% | 39.56% | MIC (B. subtilis; [2]): 31.2 µg/mL (≈ 71.1 µM); MIC (E. coli; [11]): 7.81 to 15.6 µg/mL (≈ 17.8 to 35.6 µM); MBC (B. cereus; Bacillus cereus, read-out: B. cereus MBC): 62.5 µg/mL (≈ 142 µM); melting point: 155 to 157 °C; MIC (S. aureus; Staphylococcus aureus, 24 h, read-out: S. aureus MIC): 125 µg/mL (≈ 285 µM); MBC (S. aureus; Staphylococcus aureus, read-out: S. aureus MBC): 125 µg/mL (≈ 285 µM); MIC (A. fumigatus; Aspergillus fumigatus, 168 h, read-out: A. fumigatus MIC): 125 µg/mL (≈ 285 µM); MFC (A. fumigatus; Aspergillus fumigatus, read-out: A. fumigatus MFC): 125 µg/mL (≈ 285 µM); MIC (C. albicans; Candida albicans, 48 h, read-out: C. albicans MIC): 62.5 µg/mL (≈ 142 µM); MFC (C. albicans; Candida albicans, read-out: C. albicans MFC): 125 µg/mL (≈ 285 µM)
O=C(/C=C/c1ccc(Cl)cc1Cl)c1ccc(O)cc1 [Chalcone, (E)-3-(2,4-dichlorophenyl)-1-(4-hydroxyphenyl)prop-2-en-1-one] |  |  |  |  |  |  |  |  | 15.62 µg/mL | 6.54% | 8.12% | 10.76% | 16.90% | 21.57% | 34.56% | 51.80% | S. typhi MBC (S. typhi): 62.5 µg/mL; S. typhi MIC (S. typhi): 31.25 µg/mL; B. subtilis MBC (B. subtilis): 62.5 µg/mL; B. subtilis MIC (B. subtilis; 24 h at 37 ± 2 °C): 62.5 µg/mL; E. coli MBC (E. coli): 31.25 µg/mL; B. cereus MBC (B. cereus): 62.5 µg/mL; B. cereus MIC (B. cereus; 24 h at 37 ± 2 °C): 62.5 µg/mL; S. aureus MBC (S. aureus): 62.5 µg/mL; S. aureus MIC (S. aureus; 24 h at 37 ± 2 °C): 31.25 µg/mL; A. fumigatus MFC (A. fumigatus): 125 µg/mL; A. fumigatus MIC (A. fumigatus): 125 µg/mL; C. albicans MFC (C. albicans): 125 µg/mL; C. albicans MIC (C. albicans): 125 µg/mL; IC50 DPPH [1]: 76.77 µg/mL (≈ 262 µM)
O=C1O[C@H]([C@@H](O)CO)C(O)=C1O [Ascorbic acid, ascorbic acid, reference compound] |  |  |  |  |  |  |  |  |  | 39.22% | 46.53% | 80.07% | 84.09% | 87.81% | 89.95% | 90.31% | IC50 DPPH [1]: 4.45 µg/mL (≈ 25.3 µM); IC50 DPPH ([1]; listed as Ascorbic Acid): 4.451 µg/mL (≈ 25.3 µM)
O=C(/C=C\c1cccc(Br)c1)c1cccc(N=Nc2cc(Cl)ccc2Cl)c1O [Compound C-26, (2Z)-3-(3-Bromophenyl)-1-(3-((2,5-dichlorophenyl)diazenyl)-2-hydroxyphenyl)prop-2-en-1-one] |  |  |  |  |  |  |  |  | 62.5 µg/mL | 5.72% | 7.91% | 11.90% | 14.04% | 21.98% | 24.65% | 29.62% | S. typhi MBC (S. typhi): 62.5 µg/mL; S. typhi MIC (S. typhi): 15.62 µg/mL; B. subtilis MBC (B. subtilis): 62.5 µg/mL; B. subtilis MIC (B. subtilis; 24 h at 37 ± 2 °C): 62.5 µg/mL; E. coli MBC (E. coli): 125 µg/mL; B. cereus MBC (B. cereus): 250 µg/mL; B. cereus MIC (B. cereus; 24 h at 37 ± 2 °C): 250 µg/mL; S. aureus MBC (S. aureus): 31.25 µg/mL; S. aureus MIC (S. aureus; 24 h at 37 ± 2 °C): 7.81 µg/mL; A. fumigatus MFC (A. fumigatus): 125 µg/mL; A. fumigatus MIC (A. fumigatus): 125 µg/mL; C. albicans MFC (C. albicans): 125 µg/mL; C. albicans MIC (C. albicans): 125 µg/mL; log IC50 DPPH ([1]; Fig. 1): 1.349
